In patent US9624223B2, “Morphinan derivative” (THE KITASATO INSTITUTE, priority 2013, dated 2017):
Marks after values point to notes of the source that are not given here.

Tests used:
human opioid receptor δ = molecular target: T1, human opioid receptor δ (Homo sapiens, UniProt P41143); experiment: Opioid receptor function test (Lance Ultra cAMP Kit), δ receptor; type: cell-based; conditions: for EC50: agonistic activity, human δ receptor-expressing CHO cells, cAMP, forskolin; for Emax: maximum reaction relative to SNC 80 taken as 100%
T1 construct: host or cells: CHO cells
Experimental: (§1) Functional activities of the compounds of the present invention on the μ, δ, and κ opioid receptors were examined.
(§2) The test was performed by using Lance Ultra cAMP Kit (Perkin-Elmer) according the prescribed method. In the evaluation of the agonistic activity, each human opioid receptor (δ, μ, and κ, accession numbers and catalog numbers are mentioned below)-expressing CHO cells and 10 μM of a test compound were reacted for 30 minutes in the presence of forskolin in an assay buffer (1×HBSS, […], pH 7.4, […] (isobutylmethylxanthine), 7.5% BSA). The cAMP detection reagent included in the kit was then added, and 1 hour afterward, time decomposition fluorometry was performed by using EnVision plate reader (Perkin-Elmer). […] The Emax value was calculated as a ratio of the maximum reaction of the test compound based on the maximum reaction of each control drug, which was taken as 100%.
(§3) • (+)-4-[(αR)-α-(2S,5R)-4-Allyl-2,5-dimethyl-1-piperazinyl]-3-methoxybenzyl]-N,N-diethylbenzamide DAMGO: • [D-Ala^2,N-MePhe^4,Gly-ol]enkephalin U-69593: • (+)-(5α,7α,8β)-N-Methyl-N-[7-(1-pyrrolidinyl)-1-oxaspiro[4.5]dec-8-yl]benzeneacetamide Accession Numbers and Catalog Numbers δ: Catalog No. CT4607, accession No. NM_000911.2 μ: Catalog No. CT4605, accession No. NM_000914 κ: Catalog No. CT4606, accession No. NM_000912 (ChanTest Corporation)

human opioid receptor κ = molecular target: T2, human opioid receptor κ (Homo sapiens, UniProt P41145); experiment: Opioid receptor function test (Lance Ultra cAMP Kit), κ receptor; type: cell-based; conditions: for EC50: agonistic activity, human κ receptor-expressing CHO cells, cAMP, forskolin; for Emax: maximum reaction relative to U-69593 taken as 100%; for κ Receptor reaction ratio at the maximum concentration (reference value): 10 μM, maximum reaction not attained, U-69593 = 100%
T2 construct: host or cells: CHO cells
Experimental: as §1, §2, §3

human opioid receptor μ = molecular target: T3, human opioid receptor μ (Homo sapiens, UniProt P35372); experiment: Opioid receptor function test (Lance Ultra cAMP Kit), μ receptor; type: cell-based; conditions: for EC50: agonistic activity, human μ receptor-expressing CHO cells, cAMP, forskolin; for Emax: maximum reaction relative to DAMGO taken as 100%; for μ Receptor reaction ratio at the maximum concentration (reference value): 10 μM, maximum reaction not attained, DAMGO = 100%
T3 construct: host or cells: CHO cells
Experimental: as §1, §2, §3

δ opioid receptor = molecular target: T4, δ opioid receptor (Mus musculus, UniProt P32300); experiment: Opioid receptor binding test, [3H]DPDPE, mouse cerebrum membrane fraction; conditions: read-out: Binding affinity (Ki, nM) δ
T4 construct: In the assays for the μ and δ receptors, the mouse cerebrum membrane fraction was used; from tissue; host or cells: mouse cerebrum membrane fraction
Experimental: (§4) Binding affinities of the compounds of the present invention to the μ, δ, and κ opioid receptors were examined.
(§5) According to a previous report (J. Biol. Chem., 2001, 276:15409-15414), mouse cerebrum and guinea pig cerebellum membrane fractions were prepared. As radioactive ligands for the opioid receptors, [^3H]DAMGO (μ opioid receptor), [^3H]DPDPE (δ opioid receptor), and [3H]U69,593 (κ opioid receptor) were used. In the assays for the μ and δ receptors, the mouse cerebrum membrane fraction was used, and in the assay for the κ receptor, guinea pig cerebellum membrane fraction was used. For the nonspecific binding, DAMGO, DPDPE, and U69,593 were used at 1 μM for μ, δ and κ receptors, respectively. Each receptor membrane fraction, radioactive ligand, and a sample at various concentrations were reacted for a predetermined time, and after the B/F separation, amount of radioactivity remained on the filter was measured with a liquid scintillation counter, and binding inhibition ratio of the test compound (IC50 value) was calculated. Ki value was calculated by using the resulting IC50 value in accordance with the following equation. Ki=IC50/(1+L/Kd) L: Concentration of radioactive ligand used Kd: Kd value of radioactive ligand
(§6) Further, selectivity for the δ receptor among the opioid receptors was determined by calculating ratio of the Ki value for μ or κ, and the Ki value for δ (μ/δ or κ/δ).
(§7) • [D-Ala^2,N-MePhe^4, Gly-Ol]enkephalin DPDPE: • [D-Pen^2,D-Pen^5]enkephalin

μ opioid receptor = molecular target: T5, μ opioid receptor (Mus musculus, UniProt P42866); experiment: Opioid receptor binding test, [3H]DAMGO, mouse cerebrum membrane fraction; conditions: ratio of Ki for μ to Ki for δ
T5 construct: In the assays for the μ and δ receptors, the mouse cerebrum membrane fraction was used; from tissue; host or cells: mouse cerebrum membrane fraction
Experimental: as §4, §5, §6, §7

κ opioid receptor = molecular target: T6, κ opioid receptor (Cavia porcellus, UniProt P41144); experiment: Opioid receptor binding test, [3H]U69,593, guinea pig cerebellum membrane fraction; conditions: ratio of Ki for κ to Ki for δ
T6 construct: in the assay for the κ receptor, guinea pig cerebellum membrane fraction was used; from tissue; host or cells: guinea pig cerebellum membrane fraction
Experimental: as §4, §5, §6

hERG channel = molecular target: T7, hERG channel (Homo sapiens, UniProt Q12809); experiment: hERG potassium channel inhibition test (Qpatch16 patch clamp, CHO-K1 cells); type: cell-based; conditions: 10 μM; tail current inhibition, hERG-expressing CHO-K1 cells
T7 construct: expressed in transfected cells; host or cells: CHO-K1 cells
Experimental: The test was performed with Qpatch16 (Sophion Biosciences Inc.) full automatic patch clamp system using hERG channel-stably expressing CHO-K1 cells. The hERG channel inhibitory action of each test compound was obtained on the basis of inhibitory action against a tail current induced by a test pulse at […] for 1 second applied after retention at +20 mV for 2 seconds. The test compound was dissolved in an extracellular fluid (137 mM NaCl, 4 mM KCl, 1.8 mM CaCl2, 1 mM MgCl2, 10 mM D(+)-glucose, 10 mM HEPES, pH 7.4), and the solution was […] at room temperature for 5 minutes. The inhibition ratio was obtained from the ratio of the tail current value observed after the compound was applied based on the tail current value observed before the compound was applied, which was taken as 100%. Cells were used for the test, where the cells show a peak tail current value not smaller than 100 pA, tail current run-down smaller than 30% of the initial current value, leak current smaller than 50% of the peak value of the tail current, and series resistance value lower than 20 MΩ.

T6 sequence (P41144 whole entry): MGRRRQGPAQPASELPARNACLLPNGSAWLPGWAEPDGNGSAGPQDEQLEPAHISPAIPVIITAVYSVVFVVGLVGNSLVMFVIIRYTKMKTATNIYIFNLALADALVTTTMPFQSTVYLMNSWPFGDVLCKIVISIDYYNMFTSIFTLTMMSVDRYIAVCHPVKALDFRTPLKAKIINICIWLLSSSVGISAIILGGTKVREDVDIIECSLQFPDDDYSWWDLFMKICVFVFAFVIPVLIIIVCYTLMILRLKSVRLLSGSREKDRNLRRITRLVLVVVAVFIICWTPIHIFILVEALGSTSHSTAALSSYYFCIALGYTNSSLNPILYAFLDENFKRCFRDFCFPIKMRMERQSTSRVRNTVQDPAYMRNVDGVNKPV
T4 sequence (P32300 whole entry): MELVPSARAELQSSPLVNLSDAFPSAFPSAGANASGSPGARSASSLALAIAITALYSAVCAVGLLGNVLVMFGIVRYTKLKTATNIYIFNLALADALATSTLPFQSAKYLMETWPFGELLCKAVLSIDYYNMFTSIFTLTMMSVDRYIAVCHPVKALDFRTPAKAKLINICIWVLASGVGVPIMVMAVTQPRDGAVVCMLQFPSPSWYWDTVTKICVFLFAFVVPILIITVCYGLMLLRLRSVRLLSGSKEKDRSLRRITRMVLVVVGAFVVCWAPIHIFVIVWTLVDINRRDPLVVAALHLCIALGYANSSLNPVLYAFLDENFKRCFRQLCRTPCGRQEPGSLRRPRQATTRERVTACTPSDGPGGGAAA
T2 sequence (P41145 whole entry): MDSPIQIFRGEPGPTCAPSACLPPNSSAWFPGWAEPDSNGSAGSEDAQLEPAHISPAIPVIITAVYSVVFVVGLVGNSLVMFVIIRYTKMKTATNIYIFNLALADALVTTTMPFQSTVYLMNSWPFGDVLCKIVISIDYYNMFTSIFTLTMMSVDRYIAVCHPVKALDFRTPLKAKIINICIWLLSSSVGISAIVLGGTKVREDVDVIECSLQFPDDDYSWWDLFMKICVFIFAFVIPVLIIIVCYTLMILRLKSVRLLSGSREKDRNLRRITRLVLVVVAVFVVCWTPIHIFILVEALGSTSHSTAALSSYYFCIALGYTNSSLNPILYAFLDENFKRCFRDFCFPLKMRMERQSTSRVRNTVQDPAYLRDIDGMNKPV
T3 sequence (P35372 whole entry): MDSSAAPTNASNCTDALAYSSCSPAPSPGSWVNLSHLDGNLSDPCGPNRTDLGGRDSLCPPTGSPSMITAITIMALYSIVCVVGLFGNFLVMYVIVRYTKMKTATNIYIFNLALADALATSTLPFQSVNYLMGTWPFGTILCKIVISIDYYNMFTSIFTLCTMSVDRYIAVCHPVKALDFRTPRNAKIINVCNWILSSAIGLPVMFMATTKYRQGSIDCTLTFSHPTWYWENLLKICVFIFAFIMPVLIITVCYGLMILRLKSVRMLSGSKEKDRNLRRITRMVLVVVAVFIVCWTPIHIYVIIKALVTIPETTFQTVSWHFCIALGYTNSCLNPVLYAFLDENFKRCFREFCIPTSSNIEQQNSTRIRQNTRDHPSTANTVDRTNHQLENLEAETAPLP
T7 sequence (Q12809 whole entry): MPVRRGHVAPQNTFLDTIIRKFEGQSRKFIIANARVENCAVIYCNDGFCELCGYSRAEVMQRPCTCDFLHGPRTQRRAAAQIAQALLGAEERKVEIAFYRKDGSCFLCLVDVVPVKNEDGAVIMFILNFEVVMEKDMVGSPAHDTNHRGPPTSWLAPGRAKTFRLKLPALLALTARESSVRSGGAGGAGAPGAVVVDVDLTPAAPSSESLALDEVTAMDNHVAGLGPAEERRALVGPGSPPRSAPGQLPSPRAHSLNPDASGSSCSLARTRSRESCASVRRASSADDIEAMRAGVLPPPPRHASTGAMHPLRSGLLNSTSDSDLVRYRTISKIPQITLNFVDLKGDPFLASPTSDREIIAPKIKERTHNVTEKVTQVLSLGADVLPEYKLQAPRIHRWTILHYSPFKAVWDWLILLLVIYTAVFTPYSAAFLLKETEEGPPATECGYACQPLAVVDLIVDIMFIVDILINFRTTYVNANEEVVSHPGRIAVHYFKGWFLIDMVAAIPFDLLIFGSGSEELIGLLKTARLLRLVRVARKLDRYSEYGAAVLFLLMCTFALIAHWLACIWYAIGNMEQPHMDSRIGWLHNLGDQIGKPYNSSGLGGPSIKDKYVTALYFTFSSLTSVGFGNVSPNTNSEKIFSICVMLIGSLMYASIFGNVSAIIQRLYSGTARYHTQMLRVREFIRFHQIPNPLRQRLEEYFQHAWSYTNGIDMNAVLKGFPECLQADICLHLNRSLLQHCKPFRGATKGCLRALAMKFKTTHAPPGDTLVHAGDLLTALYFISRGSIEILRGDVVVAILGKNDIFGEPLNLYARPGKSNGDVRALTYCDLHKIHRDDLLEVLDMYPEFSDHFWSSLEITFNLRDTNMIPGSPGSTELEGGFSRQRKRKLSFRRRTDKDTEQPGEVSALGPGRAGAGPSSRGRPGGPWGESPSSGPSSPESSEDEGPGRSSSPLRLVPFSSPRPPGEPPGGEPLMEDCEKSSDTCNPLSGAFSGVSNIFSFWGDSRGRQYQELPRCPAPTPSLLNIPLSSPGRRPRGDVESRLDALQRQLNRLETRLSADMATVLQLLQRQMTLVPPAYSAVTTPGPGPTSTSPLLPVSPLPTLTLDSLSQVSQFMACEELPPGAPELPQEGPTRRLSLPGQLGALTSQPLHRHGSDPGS
T1 sequence (P41143 whole entry): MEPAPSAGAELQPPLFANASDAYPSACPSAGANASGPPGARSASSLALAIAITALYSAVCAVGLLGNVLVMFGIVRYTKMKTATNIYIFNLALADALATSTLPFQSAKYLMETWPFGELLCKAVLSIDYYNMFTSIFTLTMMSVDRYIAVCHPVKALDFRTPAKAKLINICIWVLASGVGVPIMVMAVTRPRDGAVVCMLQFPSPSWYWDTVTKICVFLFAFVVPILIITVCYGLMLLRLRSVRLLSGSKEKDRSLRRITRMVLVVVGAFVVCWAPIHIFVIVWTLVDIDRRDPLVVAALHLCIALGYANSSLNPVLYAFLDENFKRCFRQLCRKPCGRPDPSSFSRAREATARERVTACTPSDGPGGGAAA
T5 sequence (P42866 whole entry): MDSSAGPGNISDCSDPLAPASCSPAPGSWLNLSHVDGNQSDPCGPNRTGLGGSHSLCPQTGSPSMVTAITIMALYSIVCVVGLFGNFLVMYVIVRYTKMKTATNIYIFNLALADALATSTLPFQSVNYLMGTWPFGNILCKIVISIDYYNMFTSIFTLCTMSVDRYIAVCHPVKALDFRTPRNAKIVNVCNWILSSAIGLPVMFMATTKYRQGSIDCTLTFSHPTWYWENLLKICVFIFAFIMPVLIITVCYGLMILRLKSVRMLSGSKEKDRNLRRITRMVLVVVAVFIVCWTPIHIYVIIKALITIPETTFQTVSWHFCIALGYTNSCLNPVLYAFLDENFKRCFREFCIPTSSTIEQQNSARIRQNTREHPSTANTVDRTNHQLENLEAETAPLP

CN1CCC[C@H]1CN1CCC23c4cc(O)ccc4CC1C21CCC2C3[C@@H](CN2C(=O)c2ccccc2)C1 (stereo partly drawn) [Compound 20, [(1S,3aR,5aS,6R,11bR,11cS)-10-hydroxy-14-[[(2S)-11-methylpyrrolidin-2-yl]methyl]-1,2,3a,4,5,6,7,11c-octahydro-3H-6,11b-(epiminoethano)-1,5a-methanonaphtho[1,2-e]indol-3-yl](phenyl)methanone]
EC50 (human opioid receptor δ): < 1 nM | Emax (human opioid receptor δ): 103% | EC50 (human opioid receptor κ): > 10 nM | Emax (human opioid receptor κ): 17% | EC50 (human opioid receptor μ): > 100 nM | Emax (human opioid receptor μ): 54%

O=C(c1ccccc1)N1C[C@H]2CC34CCC1C2C31CCN(CC2CNC2)C4Cc2ccc(O)cc21 (some centres unmarked) [Compound 49]
EC50 (human opioid receptor δ): < 1 nM | Emax (human opioid receptor δ): 108% | EC50 (human opioid receptor κ): > 100 nM | Emax (human opioid receptor κ): 28% | EC50 (human opioid receptor μ): > 100 nM | Emax (human opioid receptor μ): 105%

NCC(O)CN1CC[C@@]23c4cc(O)ccc4C[C@@H]1[C@]21CC[C@@H]2[C@H]3[C@@H](CN2C(=O)c2ccccc2)C1 (single isomer, unassigned) [Compound 62a]
EC50 (human opioid receptor δ): < 1 nM | Emax (human opioid receptor δ): 108% | κ Receptor reaction ratio at the maximum concentration (reference value) (human opioid receptor κ): (1.7)^a % | EC50 (human opioid receptor μ): > 100 nM | Emax (human opioid receptor μ): 106%

C[C@H](N)CN1CCC23c4cc(O)ccc4CC1C21CCC2C3[C@@H](CN2C(=O)c2ccccc2)C1 (some centres unmarked) [Compound 43]
EC50 (human opioid receptor δ): < 10 nM | Emax (human opioid receptor δ): 109% | Ki (δ opioid receptor): < 1 nM | κ Receptor reaction ratio at the maximum concentration (reference value) (human opioid receptor κ): (7.2)^a % | δ-receptor selectivity (Ki value ratio) μ/δ (μ opioid receptor): >10 | μ Receptor reaction ratio at the maximum concentration (reference value) (human opioid receptor μ): (8.2)^a % | δ-receptor selectivity (Ki value ratio) κ/δ (κ opioid receptor): >10

O=C(c1ccccc1)N1C[C@H]2CC34CCC1C2C31CCN(C[C@@H]2CCCCN2)C4Cc2ccc(O)cc21 (some centres unmarked) [Compound 47]
Ki (δ opioid receptor): < 10 nM | δ-receptor selectivity (Ki value ratio) μ/δ (μ opioid receptor): >10 | δ-receptor selectivity (Ki value ratio) κ/δ (κ opioid receptor): >10

Cc1cc(C)nc(N2C[C@H]3C[C@@]45CC[C@@H]2[C@@H]3[C@@]42CCN(CCCN)[C@@H]5Cc3ccc(O)cc32)n1 [Compound 76, (1S,3aR,5aS,6R,11bR,11cS)-14-(3-aminopropyl)-3-(4,6-dimethylpyrimidin-2-yl)-2,3,3a,4,5,6,7,11c-octahydro-1H-6,11b-(epiminoethano)-1,5a-methanonaphtho[1,2-e]indol-10-ol]
HERG channel inhibitory action (hERG channel): <50%

NCCCN1CCC23c4cc(O)ccc4CC1C21CCC2C3[C@@H](CN2C(=O)c2ccccc2)C1 (some centres unmarked) [Compound 41]
EC50 (human opioid receptor δ): < 1 nM | Emax (human opioid receptor δ): 103% | κ Receptor reaction ratio at the maximum concentration (reference value) (human opioid receptor κ): (15)^a % | EC50 (human opioid receptor μ): > 100 nM | Emax (human opioid receptor μ): 97%

O=C(c1ccccc1)N1C[C@H]2C[C@@]34CC[C@@H]1[C@@H]2[C@@]31CCN(C[C@@H]2CCCN2)[C@@H]4Cc2ccc(O)cc21 [Compound 19, [(1S,3aR,5aS,6R,11bR,11cS)-10-hydroxy-14-[[(2S)-pyrrolidin-2-yl]methyl]-1,2,3a,4,5,6,7,11c-octahydro-3H-6,11b-(epiminoethano)-1,5a-methanonaphtho[1,2-e]indol-3-yl](phenyl)methanone]
EC50 (human opioid receptor δ): < 10 nM | Emax (human opioid receptor δ): 106% | κ Receptor reaction ratio at the maximum concentration (reference value) (human opioid receptor κ): (2.6)^a % | EC50 (human opioid receptor μ): > 100 nM | Emax (human opioid receptor μ): 27% | HERG channel inhibitory action (hERG channel): <50%

NCCCN1CCC23c4cc(O)ccc4CC1C21CCC2C3[C@@H](CN2C(=O)c2cccc3ccccc23)C1 (some centres unmarked) [Compound 55]
EC50 (human opioid receptor δ): < 1 nM | Emax (human opioid receptor δ): 102% | κ Receptor reaction ratio at the maximum concentration (reference value) (human opioid receptor κ): (4.8)^a % | EC50 (human opioid receptor μ): > 10 nM | Emax (human opioid receptor μ): 82%

NCCN1CC[C@@]23c4cc(O)ccc4C[C@@H]1[C@]21CC[C@@H]2[C@H]3[C@@H](CN2C(=O)c2ccccc2)C1 [Compound 13, [(1S,3aR,5aS,6R,11bR,11cS)-14-(2-aminoethyl)-10-hydroxy-1,2,3a,4,5,6,7,11c-octahydro-3H-6,11b-(epiminoethano)-1,5a-methanonaphtho[1,2-e]indol-3-yl](phenyl)methanone]
EC50 (human opioid receptor δ): < 10 nM | Emax (human opioid receptor δ): 101% | Ki (δ opioid receptor): < 10 nM | EC50 (human opioid receptor κ): > 100 nM | Emax (human opioid receptor κ): 12% | δ-receptor selectivity (Ki value ratio) μ/δ (μ opioid receptor): >10 | EC50 (human opioid receptor μ): > 100 nM | Emax (human opioid receptor μ): 39% | HERG channel inhibitory action (hERG channel): <50% | δ-receptor selectivity (Ki value ratio) κ/δ (κ opioid receptor): >10

Cc1cc(C)nc(N2C[C@H]3C[C@@]45CC[C@@H]2[C@@H]3[C@@]42CCN(CCN(C)C)[C@@H]5Cc3ccc(O)cc32)n1 [Compound 74, (1S,3aR,5aS,6R,11bR,11cS)-14-[2-(dimethylamino)ethyl]-3-(4,6-dimethylpyrimidin-2-yl)-2,3,3a,4,5,6,7,11c-octahydro-1H-6,11b-(epiminoethano)-1,5a-methanonaphtho[1,2-e]indol-10-ol]
EC50 (human opioid receptor δ): < 1 nM | Emax (human opioid receptor δ): 101% | EC50 (human opioid receptor κ): > 100 nM | Emax (human opioid receptor κ): 46% | EC50 (human opioid receptor μ): > 10 nM | Emax (human opioid receptor μ): 121%

N[C@@H](CO)CN1CC[C@@]23c4cc(O)ccc4C[C@@H]1[C@]21CC[C@@H]2[C@H]3[C@@H](CN2C(=O)c2ccccc2)C1 [Compound 64, [(1S,3aR,5aS,6R,11bR,11cS)-14-[(2R)-2-amino-3-hydroxypropyl]-10-hydroxy-1,2,3a,4,5,6,7,11c-octahydro-3H-6,11b-(epiminoethano)-1,5a-methanonaphtho[1,2-e]indol-3-yl](phenyl)methanone]
EC50 (human opioid receptor δ): < 1 nM | Emax (human opioid receptor δ): 105% | κ Receptor reaction ratio at the maximum concentration (reference value) (human opioid receptor κ): (9.0)^a % | μ Receptor reaction ratio at the maximum concentration (reference value) (human opioid receptor μ): (60)^a % | HERG channel inhibitory action (hERG channel): <50%

CN(C)CCN1CCC23c4cc(O)ccc4CC1C21CCC2C3[C@@H](CN2C(=O)c2ccccc2)C1 (some centres unmarked) [Compound 40]
EC50 (human opioid receptor δ): < 1 nM | Emax (human opioid receptor δ): 104% | EC50 (human opioid receptor κ): > 10 nM | Emax (human opioid receptor κ): 22% | EC50 (human opioid receptor μ): > 10 nM | Emax (human opioid receptor μ): 92%
